Where a name gives a salt, the structure may show the parent alone. Read-outs that look alike come from different tables or passages of the source.
Experiments:
5-HT1A = 5-HT1A (Homo sapiens (Human), UniProt P08908); assay: 5-HT1A Gi/o-mediated cAMP inhibition, GloSensor assay; type: cell-based; settings: for 5-HT1A-cAMP Emax (% 5-HT): cAMP inhibition, 0.2 μM isoproterenol, IA = Inactive
5-HT2A = 5-HT2A (Homo sapiens (Human), UniProt P28223); assay: 5-HT2A Gq-mediated calcium flux functional assay; type: cell-based
5-HT2C = 5-HT2C (Homo sapiens (Human), UniProt P28335); assay: 5-HT2C Gq-mediated calcium flux functional assay; type: cell-based
Sequence of 5-HT2C (P28335 whole entry, looked up): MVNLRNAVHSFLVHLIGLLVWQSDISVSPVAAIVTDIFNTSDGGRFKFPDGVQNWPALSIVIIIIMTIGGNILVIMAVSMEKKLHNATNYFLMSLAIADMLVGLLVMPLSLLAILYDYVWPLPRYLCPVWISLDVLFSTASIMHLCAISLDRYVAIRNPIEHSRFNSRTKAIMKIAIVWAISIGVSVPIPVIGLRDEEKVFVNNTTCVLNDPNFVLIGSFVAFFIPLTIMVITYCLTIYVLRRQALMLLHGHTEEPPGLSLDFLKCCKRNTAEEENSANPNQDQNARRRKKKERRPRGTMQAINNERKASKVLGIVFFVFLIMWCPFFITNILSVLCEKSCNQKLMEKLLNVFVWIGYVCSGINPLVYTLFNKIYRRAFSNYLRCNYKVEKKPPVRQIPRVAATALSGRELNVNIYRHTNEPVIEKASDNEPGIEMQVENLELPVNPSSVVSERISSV

Serotonin 5-HT2A (human) = Serotonin 5-HT2A (human) (Homo sapiens (Human), UniProt P28223); assay: 5-HT2A receptor binding, [3H]-ketanserin competition in membrane fractions; settings: for 5-HT2A pKi ± SEM: 1 nM [3H]-ketanserin, Cheng-Prusoff, N=1-3
5-HT2B = 5-HT2B (Homo sapiens (Human), UniProt P41595); assay: 5-HT2B Gq-mediated calcium flux functional assay; type: cell-based
Sequence of 5-HT2B (P41595 whole entry): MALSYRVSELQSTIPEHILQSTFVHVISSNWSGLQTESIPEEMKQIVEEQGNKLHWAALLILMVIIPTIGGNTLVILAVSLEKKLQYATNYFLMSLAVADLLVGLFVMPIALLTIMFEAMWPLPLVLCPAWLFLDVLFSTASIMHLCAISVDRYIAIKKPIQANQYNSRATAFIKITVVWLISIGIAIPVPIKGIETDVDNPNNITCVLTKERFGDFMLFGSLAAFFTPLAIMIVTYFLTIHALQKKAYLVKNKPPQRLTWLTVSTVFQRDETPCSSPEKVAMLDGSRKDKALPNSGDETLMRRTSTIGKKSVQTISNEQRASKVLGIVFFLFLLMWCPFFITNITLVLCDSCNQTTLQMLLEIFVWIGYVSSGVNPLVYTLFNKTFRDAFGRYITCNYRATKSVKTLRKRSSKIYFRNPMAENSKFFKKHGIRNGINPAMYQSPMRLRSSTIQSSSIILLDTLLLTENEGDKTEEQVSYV

SMILES	melting point	EC50 (5-HT1A) [nM]	5-HT1A-cAMP Emax (% 5-HT) (5-HT1A)	EC50 (5-HT2A) [nM]	5-HT2A-Ca2+ FLUX Emax (% 5-HT) (5-HT2A; IA = Inactive, N=1-3)	EC50 (5-HT2C) [nM]	5-HT2C-Ca2+ FLUX Emax (% 5-HT) (5-HT2C; IA = Inactive, N=1-3)	EC50 (5-HT2B) [nM]	5-HT2B-Ca2+ FLUX Emax (% 5-HT) (5-HT2B; IA = Inactive, N=1-3)	further results
CCN(C)CC(=O)c1c[nH]c2ccc(F)cc12	160.1 to 164.8 °C									
CC(C1CC1)N(C)CCc1c[nH]c2ccc(F)cc12 (centres unmarked) (as salt: HCl)	100.7 to 101.5 °C									
CCC(C)N(C)CCc1c[nH]c2ccc(F)cc12 (centres unmarked) (as salt: HCl) [Example 3, N-(2-(5-fluoro-1H-indol-3-yl)ethyl)-N-methylbutan-2-amine]	136.5 to 142 °C									
CCCN(CCc1c[nH]c2ccc(F)cc12)C(C)C (as salt: HCl) [Example 4, N-(2-(5-fluoro-1H-indol-3-yl)ethyl)-N-isopropylpropan-1-amine]	155.8 to 158 °C									
CCCN(CCC)CCc1c[nH]c2ccc(F)cc12 (as salt: HCl) [Example 5, N-(2-(5-fluoro-1H-indol-3-yl)ethyl)-N-propylpropan-1-amine]	187.5 to 188 °C									
CCCN(CC)CCc1c[nH]c2ccc(F)cc12 (as salt: HCl) [Example 6, N-ethyl-N-(2-(5-fluoro-1H-indol-3-yl)ethyl)propan-1-amine]	154.5 to 155.4 °C									
C=CCN(CCc1c[nH]c2ccc(F)cc12)C(C)C (as salt: HCl) [Example 11, N-(2-(5-fluoro-1H-indol-3-yl)ethyl)-N-isopropylprop-2-en-1-amine]	132 to 134 °C									
C=CCN(CCc1c[nH]c2ccc(F)cc12)C1CCC1 (as salt: HCl) [Example 14, N-allyl-N-(2-(5-fluoro-1H-indol-3-yl)ethyl)cyclobutanamine]	196.3 to 199 °C									
C=CCN(CCc1c[nH]c2ccc(F)cc12)C(C)CC (centres unmarked) (as salt: HCl) [compound 16, N-allyl-N-(2-(5-fluoro-1H-indol-3-yl)ethyl)butan-2-amine]	157 to 161.8 °C									
CC(C)N(CC#N)CCc1c[nH]c2ccc(F)cc12 (as salt: HCl) [compound 17, 2-((2-(5-fluoro-1H-indol-3-yl)ethyl)(isopropyl)amino)acetonitrile]	147 to 150 °C (dec.)									
CN(CCc1c[nH]c2ccc(F)cc12)C1CSC1 (as salt: HCl) [compound 20, N-(2-(5-fluoro-1H-indol-3-yl)ethyl)-N-methylthietan-3-amine]	221 to 223.3 °C									
CCC(C)N(CCc1c[nH]c2ccc(F)cc12)C(C)C (centres unmarked) (as salt: HCl) [compound 32, N-(2-(5-fluoro-1H-indol-3-yl)ethyl)-N-isopropylbutan-2-amine]	193.7 to 195 °C									
CCCN(CC)CCc1c[nH]c2ccc(F)c(F)c12 (as salt: fumarate) [compound 21, N-(2-(4,5-difluoro-1H-indol-3-yl)ethyl)-N-ethylpropan-1-amine]	182.1 to 183.3 °C									
CC(C)N(CCc1c[nH]c2ccc(F)cc12)CC1CC1 (as salt: hydrochloride)	191 to 192.5 °C									
CCN(CCc1c[nH]c2ccc(F)cc12)C1CC1 (as salt: hydrochloride)	219.7 to 220.1 °C									
CC(C)C(C)N(C)CCc1c[nH]c2ccc(F)cc12 (centres unmarked) (as salt: hydrochloride)	157.5 to 158.1 °C									

SMILES	melting point	EC50 (5-HT1A) [nM]	5-HT1A-cAMP Emax (% 5-HT) (5-HT1A)	EC50 (5-HT2A) [nM]	5-HT2A-Ca2+ FLUX Emax (% 5-HT) (5-HT2A; IA = Inactive, N=1-3)	EC50 (5-HT2C) [nM]	5-HT2C-Ca2+ FLUX Emax (% 5-HT) (5-HT2C; IA = Inactive, N=1-3)	EC50 (5-HT2B) [nM]	5-HT2B-Ca2+ FLUX Emax (% 5-HT) (5-HT2B; IA = Inactive, N=1-3)	further results
CCCN(CCc1c[nH]c2ccc(F)cc12)C(C)CC (centres unmarked) (as salt: hydrochloride) [compound 22, N-(2-(5-fluoro-1H-indol-3-yl)ethyl)-N-propylbutan-2-amine]	153.2 to 155.4 °C									
C=CCN(CC)CCc1c[nH]c2ccc(F)cc12 (as salt: hydrochloride) [compound 36, N-ethyl-N-(2-(5-fluoro-1H-indol-3-yl)ethyl)prop-2-en-1-amine]	123.7 to 128.5 °C									
CCCN(CC)CCc1c[nH]c2cc(Cl)c(F)cc12 (as salt: hydrochloride) [compound 37, N-(2-(6-chloro-5-fluoro-1H-indol-3-yl)ethyl)-N-ethylpropan-1-amine]	231 to 232.6 °C									
CC(C)CN(C)CCc1c[nH]c2ccc(F)cc12 (as salt: hydrochloride) [compound 39, N-(2-(5-fluoro-1H-indol-3-yl)ethyl)-N,2-dimethylpropan-1-amine]	150 to 151.5 °C									
CC(C)N(C)CCc1c[nH]c2ccc(F)cc12 [Example 2, N-(2-(5-fluoro-1H-indol-3-yl)ethyl)-N-methylpropan-2-amine]		1820	93.2 ± 4.7	1.95	95.1 ± 0.8	21.9	64.6 ± 1.7	3.31	68.6 ± 1.7	5-HT2A pKi ± SEM (Serotonin 5-HT2A (human)): 6.36 ± 0.003
CCCN(CCC)CCc1c[nH]c2ccc(F)cc12 [Example 5, N-(2-(5-fluoro-1H-indol-3-yl)ethyl)-N-propylpropan-1-amine]		74.1	87.5 ± 1.6	0.724	106.7 ± 0.8	3.39	109.3 ± 3.1	0.759	104.1 ± 0.7	5-HT2A pKi ± SEM (Serotonin 5-HT2A (human)): 6.20
CCCN(CC)CCc1c[nH]c2ccc(F)cc12 [Example 6, N-ethyl-N-(2-(5-fluoro-1H-indol-3-yl)ethyl)propan-1-amine]		49	90.5 ± 1.8	0.776	103.5 ± 0.8	1.78	111.7 ± 2.5	1.1	101.2 ± 0.7	5-HT2A pKi ± SEM (Serotonin 5-HT2A (human)): 6.06 ± 0.13
C=CCN(C)CCc1c[nH]c2ccc(F)cc12 [Example 10, N-(2-(5-fluoro-1H-indol-3-yl)ethyl)-N-methylprop-2-en-1-amine]		89.1	97.8 ± 2.7	0.479	100.3 ± 2.2	3.02	97.4 ± 2.6	0.955	73.8 ± 2.3	Ki (Serotonin 5-HT2A (human)): 309 nM
CCN(C)CCc1c[nH]c2ccc(F)cc12 [Example 12, N-ethyl-2-(5-fluoro-1H-indol-3-yl)-N-methylethan-1-amine]		75.9	91.1 ± 1.7	1.74	101.8 ± 1.1	1.58	117.2 ± 2.5	2.29	65.8 ± 1.6	5-HT2A pKi ± SEM (Serotonin 5-HT2A (human)): 6.66 ± 0.12
C=CCN(CCc1c[nH]c2ccc(F)cc12)C(C)CC (centres unmarked) [compound 16, N-allyl-N-(2-(5-fluoro-1H-indol-3-yl)ethyl)butan-2-amine]		166	94.2 ± 2.2	0.871	103.4 ± 1.8	49	84.3 ± 3.4	2.09	97.4 ± 1.7	Ki (Serotonin 5-HT2A (human)): 1660 nM
CCC(C)N(CC)CCc1c[nH]c2ccc(F)cc12 (centres unmarked) [compound 30, N-ethyl-N-(2-(5-fluoro-1H-indol-3-yl)ethyl)butan-2-amine]		468	104.0 ± 3.1	2.45	93.2 ± 1.7	148	72.2 ± 2.9	3.47	83.8 ± 2.1	5-HT2A pKi ± SEM (Serotonin 5-HT2A (human)): 5.70 ± 0.39
CCC(C)N(CCc1c[nH]c2ccc(F)cc12)C(C)C (centres unmarked) [compound 32, N-(2-(5-fluoro-1H-indol-3-yl)ethyl)-N-isopropylbutan-2-amine]		1260	88.5 ± 2.8	1.12	106.8 ± 1.7	64.6	101.5 ± 2.7	0.955	108.0 ± 1.8	5-HT2A pKi ± SEM (Serotonin 5-HT2A (human)): 5.86 ± 0.16
C=CCN(CC)CCc1c[nH]c2ccc(F)cc12 [compound 36, N-ethyl-N-(2-(5-fluoro-1H-indol-3-yl)ethyl)prop-2-en-1-amine]		56.2	98.4 ± 1.5	1.2	104.8 ± 2.0	17	101.5 ± 1.9	1.74	104.5 ± 2.0	5-HT2A pKi ± SEM (Serotonin 5-HT2A (human)): 6.13 ± 0.08
CC(C)N(CCc1c[nH]c2ccc(F)cc12)C1CCC1 [compound 40, N-(2-(5-fluoro-1H-indol-3-yl)ethyl)-N-isopropylcyclobutanamine]		66.1	102.1 ± 1.7	0.891	102.5 ± 2.0	112	94.9 ± 2.0	1.1	106.7 ± 1.5	5-HT2A pKi ± SEM (Serotonin 5-HT2A (human)): 6.06 ± 0.05
CC(CN)c1c[nH]c2ccc(F)cc12 (centres unmarked) [compound 187, 2-(5-fluoro-1H-indol-3-yl)propan-1-amine]		933	88.5 ± 2.8		90.7 ± 2.5		93.6 ± 0.9		89.0 ± 1.4	EC50 (5-HT2A; IA = Inactive, N=1-3, read-out: 5-HT2A-Ca2+ FLUX pEC50 (converted)): 36.3 nM; EC50 (5-HT2C; IA = Inactive, N=1-3, read-out: 5-HT2C-Ca2+ FLUX pEC50 (converted)): 18.6 nM; 5-HT2A pKi ± SEM (Serotonin 5-HT2A (human)): 5.41; EC50 (5-HT2B; IA = Inactive, N=1-3, read-out: 5-HT2B-Ca2+ FLUX pEC50 (converted)): 1.26 nM
